Test results: patent US20090111847A1, “PREPARATION METHOD AND USE OF COMPOUNDS HAVING HIGH INSECTICIDAL ACTIVITIES” (priority 2006, published 2009)

Legend:
[1] = system: Aphis craccivora; assay: Insecticidal activity against Aphis craccivora by immersing (mortality after 24 hours); assay type: in vivo; settings: for Mortality (%) (500 ppm) Aphis craccivora: in vivo; for mortality at 500 ppm: Aphis craccivora, 24 h, read-out: Mortality (%) (500 ppm) Aphis craccivora
Experimental: Aphis, which belongs to Homoptera and has a piercing-sucking mouthpart, is a common insect for agricultural plant. Aphis craccivora was tested by the way of immersing.
Test method: exactly weighed various samples were independently added to N,N-dimethylformamide to form a 10 g/L stock solution. The mixture was diluted with 0.2 mL/L aqueous Triton X-100 solution to a concentration of 500 ug/mL. After stably sucking on bean sprout, the adult aphis without wings together with bean sprout was dipped into the dilution of 500 ug/mL, 100 ug/mL, 50 ug/mL, 25 ug/mL, 12.5 ug/mL, 6.25 ug/mL (LD50 was calculated), taken out after 5 seconds, and the excess dilution was sucked out with bibulous paper and the adult aphis without wings was incubated in clean vessel at a constant temperature of 23° C. Each concentration was repeated for 3 times and the control group contained 0.2 mL/L aqueous Triton X-100 solution. The number of killed aphis was counted after 24 hours to calculate the mortality.

[2] = system: Nilaparvata lugens; assay: Insecticidal activity against Nilaparvata lugens by spraying (mortality after 24 hours); assay type: in vivo; settings: for Mortality (%) (500 ppm) Nilaparvata lugens: spraying 2 ml, counted after 24 hours; for mortality at 500 ppm: Nilaparvata lugens, 24 h, read-out: Mortality (%) (500 ppm) Nilaparvata lugens
Experimental: Plant hopper, which belongs to Homoptera and has a piercing-sucking mouthpart, is a common insect for agricultural plant. Nilaparvata lugens was tested by the way of spraying.
Test method: the compound to be tested was exactly formulated into a solution having a certain concentration and clean water was used as a blank control. Each process was repeated for 3 tumblers (3 times). 2 ml of solution was sprayed uniformly to each tumbler by a mini manual sprayer. 10 Nilaparvata lugens were introduced to every sink 6 hours before spraying. Three series of experiments were conducted. The number of killed Nilaparvata lugens was counted after 24 hours to calculate the mortality.

| SMILES | Mortality (%) (500 ppm) Aphis craccivora [1] | Mortality (%) (500 ppm) Nilaparvata lugens [2] | mortality at 500 ppm [1] | mortality at 500 ppm [2] |
| --- | --- | --- | --- | --- |
| CC1CC(O)N2CCN(CC3CCOC3)C2=C1[N+](=O)[O-] (centres unmarked) [Compound 15] | 24% | 35% |  |  |
| CCC1C(C)C([N+](=O)[O-])=C2N(Cc3ccc(Cl)nc3)CCN2C1O (centres unmarked) [Compound 33] | 92% | 78% |  |  |
| CCCC1CC(OCC)N2CCN(Cc3ccc(Cl)nc3)C2=C1[N+](=O)[O-] (centres unmarked) [Compound 25] | 96% | 100% |  |  |
| CCC1CC(O)N2CCN(Cc3ccc(Cl)nc3)C2=C1[N+](=O)[O-] (centres unmarked) [Compound 22] | 93% | 98% |  |  |
| CC1(C)CC(O)N2CCN(Cc3ccc(Cl)nc3)C2=C1[N+](=O)[O-] (centres unmarked) [Compound 31] | 96% | 100% |  |  |
| CCOC1CC(O)N2CCN(Cc3ccc(Cl)nc3)C2=C1[N+](=O)[O-] (centres unmarked) [Compound 45] | 100% | 89% |  |  |
| CCC1CC([N+](=O)[O-])=C2N(Cc3ccc(Cl)nc3)CCN2C1O (centres unmarked) [Compound 26] | 100% | 100% |  |  |
| C=CCOC1CC(C)C([N+](=O)[O-])=C2N(Cc3ccc(Cl)nc3)CCN21 (centres unmarked) [Compound 9] | 98% | 100% |  |  |
| COC1CC([N+](=O)[O-])=C2N(Cc3cnc(Cl)s3)CCN2C1O (centres unmarked) [Compound 48] | 85% | 90% |  |  |
| CCOC1CC(C)C([N+](=O)[O-])=C2N(Cc3ccc(Cl)nc3)CCN21 (centres unmarked) [Compound 3, 1-((6-chloropyridin-3-yl)methyl)-5-ethoxy-7-methyl-8-nitro-1,2,3,5,6,7-hexahydroimidazo[1,2-a]pyridine] |  |  | 100% | 100% |
| COC1CC([N+](=O)[O-])=C2N(Cc3ccc(Cl)nc3)CCN2C1O (centres unmarked) [Compound 46, 1-((6-chloropyridin-3-yl)methyl)-6-methoxy-8-nitro-1,2,3,5,6,7-hexahydroimidazo[1,2-a]pyridin-5-ol] |  |  | 100% | 73% |
| CC1C(O)N2CCN(Cc3ccc(Cl)nc3)C2=C([N+](=O)[O-])C1(C)C (centres unmarked) [Compound 36] | 94% | 97% |  |  |
| CCC1C(O)N2CCN(Cc3ccc(Cl)nc3)C2=C([N+](=O)[O-])C1(C)C (centres unmarked) [Compound 37] | 99% | 88% |  |  |
| CCCCCOC1CC(C)C([N+](=O)[O-])=C2N(Cc3ccc(Cl)nc3)CCN21 (centres unmarked) [Compound 8] | 67% | 80% |  |  |
| CC(=O)OC1CC(C)C([N+](=O)[O-])=C2N(Cc3ccc(Cl)nc3)CCN21 (centres unmarked) [Compound 11, 1-((6-chloropyridin-3-yl)methyl)-7-methyl-8-nitro-1,2,3,5,6,7-hexahydroimidazo[1,2-a]pyridin-5-yl acetate] |  |  | 93% | 100% |
| CC(C)OC1CC(C)C([N+](=O)[O-])=C2N(Cc3ccc(Cl)nc3)CCN21 (centres unmarked) [Compound 6] | 100% | 100% |  |  |
| CCCC1CC([N+](=O)[O-])=C2N(Cc3ccc(Cl)nc3)CCN2C1O (centres unmarked) [Compound 28] | 100% | 96% |  |  |
| CCOC1C(C)CC([N+](=O)[O-])=C2N(Cc3ccc(Cl)nc3)CCN21 (centres unmarked) [Compound 19] | 100% | 100% |  |  |
| COC1CC(C)C([N+](=O)[O-])=C2N(CC3CCOC3)CCN21 (centres unmarked) [Compound 16] | 45% | 67% |  |  |
| CC1CC(O)N2CCN(Cc3ccc(Cl)nc3)C2=C1[N+](=O)[O-] (centres unmarked) [Compound 1, 1-((6-chloropyridin-3-yl)methyl)-7-methyl-8-nitro-1,2,3,5,6,7-hexahydroimidazo[1,2-a]pyridin-5-ol] |  |  | 100% | 100% |

| SMILES | Mortality (%) (500 ppm) Aphis craccivora [1] | Mortality (%) (500 ppm) Nilaparvata lugens [2] | mortality at 500 ppm [1] | mortality at 500 ppm [2] |
| --- | --- | --- | --- | --- |
| CCOC1CC(C)C([N+](=O)[O-])=C2N(Cc3cnc(Cl)s3)CCN21 (centres unmarked) [Compound 13] | 98% | 100% |  |  |
| CC1CC([N+](=O)[O-])=C2N(Cc3ccc(Cl)nc3)CCN2C1O (centres unmarked) [Compound 18, 1-((6-chloropyridin-3-yl)methyl)-6-methyl-8-nitro-1,2,3,5,6,7-hexahydroimidazo[1,2-a]pyridin-5-ol] |  |  | 98% | 100% |
| COC1C(C)C([N+](=O)[O-])=C2N(Cc3ccc(Cl)nc3)CCN2C1O (centres unmarked) [Compound 49] | 100% | 100% |  |  |
| COC1CC(C)(C)C([N+](=O)[O-])=C2N(Cc3ccc(Cl)nc3)CCN21 (centres unmarked) [Compound 32] | 100% | 100% |  |  |
| CCCOC1C(C)CC([N+](=O)[O-])=C2N(Cc3ccc(Cl)nc3)CCN21 (centres unmarked) [Compound 20] | 86% | 98% |  |  |
| COC1CC(O)N2CCN(Cc3cnc(Cl)s3)C2=C1[N+](=O)[O-] (centres unmarked) [Compound 44] | 100% | 97% |  |  |
| CCCC1C(C)C([N+](=O)[O-])=C2N(Cc3ccc(Cl)nc3)CCN2C1O (centres unmarked) [Compound 34] | 95% | 90% |  |  |
| COC1CC(c2ccccc2)C([N+](=O)[O-])=C2N(Cc3ccc(Cl)nc3)CCN21 (centres unmarked) [Compound 39] | 45% | 0% |  |  |
| COC1C([N+](=O)[O-])=C2N(Cc3ccc(Cl)nc3)CCN2C(O)C1C (centres unmarked) [Compound 43] | 100% | 97% |  |  |
| CCC1CC(OC(C)C)N2CCN(Cc3ccc(Cl)nc3)C2=C1[N+](=O)[O-] (centres unmarked) [Compound 23] | 65% | 95% |  |  |
| CC1CC(O)N2CCN(Cc3cnc(Cl)s3)C2=C1[N+](=O)[O-] (centres unmarked) [Compound 12, 1-((2-chlorothiazol-5-yl)methyl)-7-methyl-8-nitro-1,2,3,5,6,7-hexahydroimidazo[1,2-a]pyridin-5-ol] |  |  | 100% | 100% |
| CCOC1CC([N+](=O)[O-])=C2N(Cc3ccc(Cl)nc3)CCN2C1O (centres unmarked) [Compound 47] | 98% | 91% |  |  |
| CCC1C([N+](=O)[O-])=C2N(Cc3ccc(Cl)nc3)CCN2C(O)C1C (centres unmarked) [Compound 35] | 100% | 88% |  |  |
| CCCCOC1CC(C)C([N+](=O)[O-])=C2N(Cc3ccc(Cl)nc3)CCN21 (centres unmarked) [Compound 7, 5-butoxy-1-((6-chloropyridin-3-yl)methyl)-7-methyl-8-nitro-1,2,3,5,6,7-hexahydroimidazo[1,2-a]pyridine] |  |  | 80% | 100% |
| CCCOC1CC(C)C([N+](=O)[O-])=C2N(Cc3cnc(Cl)s3)CCN21 (centres unmarked) [Compound 14] | 100% | 100% |  |  |
| COC1CC(C)C([N+](=O)[O-])=C2N(Cc3ccc(Cl)nc3)CCN21 (centres unmarked) [Compound 2, 1-((6-chloropyridin-3-yl)methyl)-5-methoxy-7-methyl-8-nitro-1,2,3,5,6,7-hexahydroimidazo[1,2-a]pyridine] |  |  | 98% | 100% |
| O=[N+]([O-])C1=C2N(Cc3ccc(Cl)nc3)CCN2C(O)CC1c1ccccc1 (centres unmarked) [Compound 38, 1-((6-chloropyridin-3-yl)methyl)-8-nitro-7-phenyl-1,2,3,5,6,7-hexahydroimidazo[1,2-a]pyridin-5-ol] |  |  | 24% | 0% |
| CCOC1CC(C)C([N+](=O)[O-])=C2N(CC3CCOC3)CCN21 (centres unmarked) [Compound 17] | 89% | 100% |  |  |
| CC1CC([N+](=O)[O-])=C2N(Cc3cnc(Cl)s3)CCN2C1O (centres unmarked) [Compound 21] | 90% | 100% |  |  |
| CCCC1CC([N+](=O)[O-])=C2N(Cc3ccc(Cl)nc3)CCN2C1OCC (centres unmarked) [Compound 29] | 100% | 97% |  |  |
